For orientation: pIC50 means the negative decadic logarithm of the IC50, by convention in mol/L. Higher therefore signals a small IC50. In general, inhibition refers to the relative decrease from the control value, in per cent. The low end stands for a response near the control, the high end for a response far below the control.

Each structure is given as a SMILES string. pIC50: −log10 of the molar value.

Assay [1] has as its target T1, Histone deacetylase 8 (Homo sapiens, UniProt Q9BY41).
T1 sequence (Q9BY41 whole entry): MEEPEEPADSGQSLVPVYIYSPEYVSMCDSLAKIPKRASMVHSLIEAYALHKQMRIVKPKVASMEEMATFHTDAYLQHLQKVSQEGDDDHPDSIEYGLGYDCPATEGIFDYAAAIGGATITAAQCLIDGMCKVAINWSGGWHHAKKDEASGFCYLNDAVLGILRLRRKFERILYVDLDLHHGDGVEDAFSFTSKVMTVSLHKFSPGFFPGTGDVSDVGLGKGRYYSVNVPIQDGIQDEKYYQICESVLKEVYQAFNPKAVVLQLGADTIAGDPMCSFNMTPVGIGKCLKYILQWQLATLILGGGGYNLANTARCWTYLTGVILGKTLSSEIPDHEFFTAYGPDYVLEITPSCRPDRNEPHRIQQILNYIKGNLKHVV
Kind of assay: Inhibition of human KDAC8 after 60 mins by fluorescence assay.

Assay [2] deals with T2, Histone deacetylase 1 (Homo sapiens, UniProt Q13547). As to the kind of experiment: Inhibition of human KDAC1 at 30 uM using substrate A after 60 mins by fluorescence assay relative to control.
Assay [3] deals with T3, Histone deacetylase 3 (Homo sapiens, UniProt O15379). Kind of assay: Inhibition of human KDAC3 at 30 uM using FITC-labeled p53 acetylated peptide as substrate after 60 mins by fluorescence assay relative to control.
The target in assay [4] is T4, Protein deacetylase HDAC6 (Homo sapiens, UniProt Q9UBN7).
T4 sequence (Q9UBN7 whole entry): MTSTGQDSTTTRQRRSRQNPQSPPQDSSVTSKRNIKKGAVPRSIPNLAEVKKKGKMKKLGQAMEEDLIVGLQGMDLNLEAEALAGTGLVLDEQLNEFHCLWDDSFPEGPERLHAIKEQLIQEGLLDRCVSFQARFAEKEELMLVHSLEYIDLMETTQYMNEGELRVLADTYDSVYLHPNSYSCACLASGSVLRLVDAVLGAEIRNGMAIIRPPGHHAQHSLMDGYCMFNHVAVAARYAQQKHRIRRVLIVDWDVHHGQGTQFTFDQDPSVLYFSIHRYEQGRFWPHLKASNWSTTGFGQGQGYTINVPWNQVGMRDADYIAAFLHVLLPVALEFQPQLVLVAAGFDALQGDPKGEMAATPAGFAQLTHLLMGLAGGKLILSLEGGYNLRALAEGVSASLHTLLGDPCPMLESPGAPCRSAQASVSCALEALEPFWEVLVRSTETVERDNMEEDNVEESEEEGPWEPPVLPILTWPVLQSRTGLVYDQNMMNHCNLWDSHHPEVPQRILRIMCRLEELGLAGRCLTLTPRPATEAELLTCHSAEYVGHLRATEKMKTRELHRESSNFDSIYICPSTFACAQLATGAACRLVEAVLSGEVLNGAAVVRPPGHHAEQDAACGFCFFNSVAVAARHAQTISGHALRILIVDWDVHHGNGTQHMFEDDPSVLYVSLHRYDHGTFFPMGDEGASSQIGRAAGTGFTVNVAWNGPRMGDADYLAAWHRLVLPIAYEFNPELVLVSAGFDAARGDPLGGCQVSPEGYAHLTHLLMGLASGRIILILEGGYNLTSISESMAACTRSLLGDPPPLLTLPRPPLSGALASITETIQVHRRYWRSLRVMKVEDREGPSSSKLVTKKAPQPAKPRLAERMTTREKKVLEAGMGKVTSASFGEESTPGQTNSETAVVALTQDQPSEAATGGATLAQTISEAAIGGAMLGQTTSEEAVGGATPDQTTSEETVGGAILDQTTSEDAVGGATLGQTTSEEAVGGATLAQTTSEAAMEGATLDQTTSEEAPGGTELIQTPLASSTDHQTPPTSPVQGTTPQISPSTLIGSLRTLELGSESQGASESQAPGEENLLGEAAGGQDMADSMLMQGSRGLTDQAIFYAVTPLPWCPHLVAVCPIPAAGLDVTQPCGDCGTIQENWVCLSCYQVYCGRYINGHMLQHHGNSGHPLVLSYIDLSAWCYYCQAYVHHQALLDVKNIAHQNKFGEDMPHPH
Kind of assay: Inhibition of human KDAC6 using FITC-labeled histone H4 acetylated peptide as substrate after 60 mins by fluorescence assay.

Assay [5] concerns the target T2, Histone deacetylase 1. As to the kind of experiment: Inhibition of human KDAC1 using substrate A after 60 mins by fluorescence assay.
Assay [6] has as its target T5, Histone deacetylase 8 (Homo sapiens) (UniProt Q9BY41).
T5 sequence (whole entry): T1 sequence (Q9BY41 whole entry)
As to the kind of experiment: Inhibition of human KDAC8 at 30 uM after 60 mins by fluorescence assay relative to control.

Assay [7] deals with T3, Histone deacetylase 3. Kind of assay: Inhibition of human KDAC3 using FITC-labeled p53 acetylated peptide as substrate after 60 mins by fluorescence assay.
For assay [8], the target named is T6, Protein deacetylase HDAC6 (Homo sapiens) (UniProt Q9UBN7).
T6 sequence (whole entry): T4 sequence (Q9UBN7 whole entry)
The note with it: at 30 µM.
Description: Inhibition of human KDAC6 at 30 uM using FITC-labeled histone H4 acetylated peptide as substrate after 60 mins by fluorescence assay relative to control

T2 sequence (Q13547 whole entry): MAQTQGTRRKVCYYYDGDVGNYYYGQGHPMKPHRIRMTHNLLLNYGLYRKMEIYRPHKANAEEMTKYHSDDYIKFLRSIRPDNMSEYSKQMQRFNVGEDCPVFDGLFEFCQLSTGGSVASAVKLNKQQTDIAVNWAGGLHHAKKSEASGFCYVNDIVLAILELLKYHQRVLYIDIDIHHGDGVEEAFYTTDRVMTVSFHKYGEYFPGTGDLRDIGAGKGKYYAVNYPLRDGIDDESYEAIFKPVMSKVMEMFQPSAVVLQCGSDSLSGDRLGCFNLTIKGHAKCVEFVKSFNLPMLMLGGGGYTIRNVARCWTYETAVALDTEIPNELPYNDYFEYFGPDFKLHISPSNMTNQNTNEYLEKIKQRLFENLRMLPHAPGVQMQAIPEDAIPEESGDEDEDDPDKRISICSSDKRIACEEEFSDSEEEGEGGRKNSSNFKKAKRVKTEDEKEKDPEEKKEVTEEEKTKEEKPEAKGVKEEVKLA
T3 sequence (O15379 whole entry): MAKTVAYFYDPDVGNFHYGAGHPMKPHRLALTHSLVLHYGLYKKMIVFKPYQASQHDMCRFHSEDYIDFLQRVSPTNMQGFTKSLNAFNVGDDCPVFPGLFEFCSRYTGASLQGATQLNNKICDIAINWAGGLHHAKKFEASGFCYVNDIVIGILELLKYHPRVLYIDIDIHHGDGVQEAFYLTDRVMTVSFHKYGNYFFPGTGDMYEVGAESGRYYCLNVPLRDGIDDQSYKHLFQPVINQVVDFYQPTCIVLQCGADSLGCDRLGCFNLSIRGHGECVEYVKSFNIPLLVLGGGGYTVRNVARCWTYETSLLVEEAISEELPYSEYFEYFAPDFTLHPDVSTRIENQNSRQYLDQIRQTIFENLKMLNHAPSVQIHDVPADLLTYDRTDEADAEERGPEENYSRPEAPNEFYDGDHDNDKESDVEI

As for `O=C(O)CC[C@H]1N=C(c2ccccc2)c2ccccc2NC1=O`, the pIC50 in assay [1], in assay [4], in assay [5] and in assay [7] was under 4.52 in each case. In addition, the inhibition in assay [2] turned out to be 10.2%; in assay [3], 0%; in assay [6] it was 0%; in assay [8], 0%.
For `O=C(CCCCN1C(=O)[C@H](Cc2ccccc2)N=C(c2ccccc2)c2ccccc21)NO`, the negative logarithm of the IC50 (pIC50) in assay [1] is 4.90; in assay [4], 5.70; in assay [5], 5.07; in assay [7], 6.31. For the same molecule, the inhibition in assay [2] amounted to 75%; in assay [3], 97%; in assay [6] it was 68.6%; in assay [8] it was 95.1%.
As for `O=C(O)CCCCN1C(=O)[C@H](Cc2ccccc2)N=C(c2ccccc2)c2ccccc21`, the negative logarithm of the IC50 (pIC50) in assay [1], in assay [4], in assay [5] and in assay [7] was under 4.52 in each case. The inhibition in assay [2] stood at 11.9%; in assay [3] it was 0.91%; in assay [6] it was 6.22%; in assay [8], 0%.
